Patent publication US20240425464A1, “Substituted Monohydrazides as Potent Antifungal Agents” (University of Kentucky Research Foundation, priority 2023, published 2024)
Values after ≈ are worked out from the molar mass of the structure shown. Values joined by “and” are separate entries in the source; they are usually repeats but may differ in a detail not shown here. Equal values may be shown once. Read-outs that look alike come from different tables or passages of the source.

What was measured:
Type in all cases: cell-based, Candida albicans
[1] = system: C. albicans ATCC MYA-1003 (G); assay: MIC determination by in vitro antifungal assay; conditions: strain G = C. albicans ATCC MYA-1063(R) (footnote), MYA-1003 in text
Procedure: (§1) 10 mg/mL stock solutions of compounds 1a-9j were prepared in dimethyl sulfoxide (DMSO) and were stored at −20° C. in the dark. The antifungal agent amphotericin B (AmB) was purchased from VWR (Radnor PA, USA). AmB was dissolved in DMSO at a final concentration of 5 mg/mL and was stored at −20° C., protected from light. Candida albicans American Type Culture Collection (ATCC) 10231 (strain A), C. albicans ATCC 64124 (B), and C. albicans ATCC MYA-2876 (C) were obtained from Utah State University. C. albicans ATCC 90819 (D), C. albicans ATCC MYA-2310 (E), C. albicans ATCC MYA-1237 (F), C. albicans ATCC MYA-1003 (G), Candida glabrata ATCC 2001 (H), Candida krusei ATCC 6258 (I), Candida parapsilosis ATCC 22019 (J), Cryptococcus neoformans ATCC MYA-895 (M), Aspergillus terreus ATCC MYA-3633 (N), and Aspergillus flavus ATCC MYA-3631 (0) were obtained from the American Type Culture Collection (ATCC; Manassas, VA, USA). Aspergillus nidulans ATCC 38163 (P) was obtained from University of Kentucky. Clinically derived Aspergillus fumigatus NRRL 163 (Q), A. fumigatus NRRL 5109 (R), and A. fumigatus NRRL 6113 (S) were obtained from Northern Regional Research Laboratory (NRRL). Candida auris 384 (K), C. auris 390 (L), and fungal strains 381-400 (including 10 C. auris (AR Bank #381-390), 3 Candida duobushaemulonii (AR Bank #391, AR Bank #392, and AR Bank #394), 2 Candida haemulonii (AR Bank #393 and AR Bank #395), 1 Kodameae ohmeri (AR Bank #396), 1 C. krusei (AR Bank #397), 1 Candida lusitaniae (AR Bank #398), and 2 Saccharomyces cerevisiae strains (AR Bank #399 and AR Bank #400)) were part of a larger fungal library from the AR Bank maintained by the Centers for Disease Control and Prevention (CDC; Atlanta, GA, USA). Filamentous fungi and yeasts were cultivated at 35° C. in RPMI 1640 medium (with L-glutamine, without sodium bicarbonate, Sigma-Aldrich, St. Louis, MO) buffered to a pH of 7.0 with 0.165 M morpholinepropanesulfonic acid (MOPS) buffer (Sigma-Aldrich). For cytotoxicity assays, HepG2 and the mouse macrophage cell line J774A.1 were obtained from University of Kentucky. The human embryonic kidney cell line, HEK-293, was bought from the ATCC. Mammalian cells were grown in Dulbecco's Modified Eagle's Medium (DMEM) (from VWR) with 10% fetal bovine serum (FBS) (from VWR) and 1% Pen/Strep (from ATCC). Cell lines were cultured at 37° C. with 5% CO2 and passaged by trypsinization with 0.05% trypsin: 0.53 mM EDTA (from Sigma-Aldrich).
(§2) The MIC values of compounds 1a-9j against yeast cells (strains A-P and 381-400) were determined in 96-well plates as described in the CLSI documents M27-A3 and M38-A2 with minor modifications.^2 A single colony of freshly prepared yeast cells was used to inoculate 5 mL of yeast extract peptone dextrose (YPD) broth prior to incubation overnight with shaking at 200 rpm at 35° C. From the actively growing yeast culture, 100 µL were then transferred to 900 μL of RPMI 1640 medium and re-adjusted to achieve OD600 of 0.12 (˜1×10^6 CFU/mL). The cell suspension was further diluted to achieve 1:100 in RPMI 1640 medium. 100 μL of cells were added to the wells of a 96-well microtiter plates that contained 100 µL of the compound solution to obtain concentrations of 0.06-31.3 μg/mL of compounds 1a-9j or AmB prior to incubation for 48 h at 35° C. […]

[2] = system: C. albicans ATCC MYA-2310 (E); assay: MIC determination by in vitro antifungal assay; conditions: strain E = C. albicans ATCC MYA-2310
Procedure: as §1, §2

[3] = system: C. albicans ATCC MYA-1237 (F); assay: MIC determination by in vitro antifungal assay; conditions: strain F = C. albicans ATCC MYA-1237(R)
Procedure: as §1, §2

[4] = system: C. albicans ATCC 64124 (B); assay: MIC determination by in vitro antifungal assay
Procedure: as §1, §2

[5] = system: C. albicans ATCC 90819 (D); assay: MIC determination by in vitro antifungal assay
Procedure: as §1, §2

[6] = system: C. albicans ATCC MYA-2876 (C); assay: MIC determination by in vitro antifungal assay; conditions: strain C = C. albicans ATCC MYA-2876(S)
Procedure: as §1, §2

[7] = system: C. albicans ATCC 10231 (strain A); assay: MIC determination by in vitro antifungal assay (CLSI broth dilution); conditions: strain A = C. albicans ATCC 10231, no visible growth, 48 h at 35° C.
Procedure: as §1, §2

[8] = strain B = C. albicans ATCC 64124
[9] = strain D = C. albicans ATCC 90819(R)
[10] = Candida albicans, read-out: MIC
[11] = Candida albicans, ATCC64124, strain B = C. albicans ATCC 64124, read-out: MIC
[12] = Candida albicans, ATCC90819, strain D = C. albicans ATCC 90819(R), read-out: MIC
[13] = Candida albicans, ATCC10231, 48 h, read-out: MIC

| SMILES | MIC [1] | MIC [2] [μg/mL^−1] | MIC [3] [μg/mL^−1] | MIC [4, 8] [μg/mL^−1] | MIC [5, 9] [μg/mL^−1] | MIC [6] [μg/mL^−1] | MIC [7] [μg/mL^−1] | MIC [1, 10] [µg/mL] | MIC [2, 10] [µg/mL] | MIC [3, 10] [µg/mL] | MIC [4, 11] [µg/mL] | MIC [5, 12] [µg/mL] | MIC [6, 10] [µg/mL] | MIC [7, 13] [µg/mL] |
| --- | --- | --- | --- | --- | --- | --- | --- | --- | --- | --- | --- | --- | --- | --- |
| C[C@@H]1[C@H](O)[C@@H](C)/C=C/C=C/C=C/C=C/C=C/C=C/C=C/[C@H](O[C@@H]2O[C@H](C)[C@@H](O)[C@H](N)[C@@H]2O)C[C@@H]2O[C@](O)(C[C@@H](O)C[C@@H](O)[C@H](O)CC[C@@H](O)C[C@@H](O)CC(=O)O[C@H]1C)C[C@H](O)[C@H]2C(=O)O [AmB, amphotericin B, reference compound] | 0.98 μg/mL^−1 and 1.95 μg/mL^−1 | 0.98 | 1.95 | 1.95 | 0.98 | 1.95 | 1.95 |  |  |  |  |  |  |  |
| O=C(NNc1cccc(F)c1)c1ccc(F)cc1F [Compound 1a] | 1.95 μg/mL^−1 | 3.9 | 0.98 | 1.95 | 7.8 | 3.9 | 0.24 |  |  |  |  |  |  |  |
| O=C(NNc1cccc(Cl)c1)c1ccc(F)cc1F [Compound 1b] |  |  |  |  |  |  |  | 3.9 (≈ 13.8 µM) | 7.8 (≈ 27.6 µM) | 3.9 (≈ 13.8 µM) | 7.8 (≈ 27.6 µM) | 15.6 (≈ 55.2 µM) | 7.8 (≈ 27.6 µM) | 1.95 (≈ 6.9 µM) |
| COc1cccc(NNC(=O)c2ccc(F)cc2F)c1 [Compound 1c] |  |  |  |  |  |  |  | 1.95 (≈ 7.01 µM) | 3.9 (≈ 14 µM) | 3.9 (≈ 14 µM) | 1.95 (≈ 7.01 µM) | 3.9 (≈ 14 µM) | 3.9 (≈ 14 µM) | 0.98 (≈ 3.52 µM) |
| O=C(NNc1ccc(F)cc1)c1ccc(F)cc1F [Compound 1d] |  |  |  |  |  |  |  | 1.95 (≈ 7.32 µM) | 3.9 (≈ 14.6 µM) | 1.95 (≈ 7.32 µM) | 7.8 (≈ 29.3 µM) | 1.95 (≈ 7.32 µM) | 7.8 (≈ 29.3 µM) | 0.49 (≈ 1.84 µM) |
| O=C(NNc1ccc(Cl)cc1)c1ccc(F)cc1F [Compound 1e] | 7.8 μg/mL^−1 | 7.8 | 1.95 | 15.6 | 3.9 | 15.6 | 1.95 |  |  |  |  |  |  |  |
| COc1ccc(NNC(=O)c2ccc(F)cc2F)cc1 [Compound 1f] |  |  |  |  |  |  |  | 1.95 (≈ 7.01 µM) | 1.95 (≈ 7.01 µM) | 1.95 (≈ 7.01 µM) | 1.95 (≈ 7.01 µM) | 1.95 (≈ 7.01 µM) | 1.95 (≈ 7.01 µM) | 0.98 (≈ 3.52 µM) |
| O=C(NNc1ccc(F)cc1F)c1ccc(F)cc1F [Compound 1g] |  |  |  |  |  |  |  | 0.98 (≈ 3.45 µM) | > 31.3 | 1.95 (≈ 6.86 µM) | 1.95 (≈ 6.86 µM) | 3.9 (≈ 13.7 µM) | 3.9 (≈ 13.7 µM) | 1.95 (≈ 6.86 µM) |
| O=C(NNc1cc(F)ccc1F)c1ccc(F)cc1F [Compound 1h] |  |  |  |  |  |  |  | 31.3 (≈ 110 µM) | 31.3 (≈ 110 µM) | 31.3 (≈ 110 µM) | 15.6 (≈ 54.9 µM) | 31.3 (≈ 110 µM) | 31.3 (≈ 110 µM) | 3.9 (≈ 13.7 µM) |
| O=C(NNc1cc(F)cc(F)c1)c1ccc(F)cc1F [Compound 1i] |  |  |  |  |  |  |  | 15.6 (≈ 54.9 µM) | 15.6 (≈ 54.9 µM) | 7.8 (≈ 27.4 µM) | 15.6 (≈ 54.9 µM) | 15.6 (≈ 54.9 µM) | 15.6 (≈ 54.9 µM) | 3.9 (≈ 13.7 µM) |
| O=C(NNc1cc(Cl)cc(Cl)c1)c1ccc(F)cc1F [Compound 1j] |  |  |  |  |  |  |  | 7.8 (≈ 24.6 µM) | > 31.3 | 15.6 (≈ 49.2 µM) | > 31.3 | > 31.3 | > 31.3 | 3.9 (≈ 12.3 µM) |
| O=C(NNc1cccc(F)c1)c1ccccn1 [Compound 2a] | 0.98 μg/mL^−1 | 1.95 | 0.98 | 0.98 | 0.49 | 0.98 | ≤0.06 |  |  |  |  |  |  |  |
| O=C(NNc1cccc(Cl)c1)c1ccccn1 [Compound 2b] | 0.49 μg/mL^−1 | 0.98 | 0.98 | 0.98 | 0.49 | 0.98 | 0.12 |  |  |  |  |  |  |  |
| COc1cccc(NNC(=O)c2ccccn2)c1 [Compound 2c] | 0.98 μg/mL^−1 | 1.95 | 1.95 | 0.98 | 1.95 | 0.98 | 0.24 |  |  |  |  |  |  |  |
| O=C(NNc1ccc(F)cc1)c1ccccn1 [Compound 2d] |  |  |  |  |  |  |  | 0.49 (≈ 2.12 µM) | 1.95 (≈ 8.43 µM) | 1.95 (≈ 8.43 µM) | 0.98 (≈ 4.24 µM) | 0.98 (≈ 4.24 µM) | 3.9 (≈ 16.9 µM) | 0.12 (≈ 0.519 µM) |
| O=C(NNc1ccc(Cl)cc1)c1ccccn1 [Compound 2e] | 0.98 μg/mL^−1 | 0.98 | 0.98 | 0.98 | 0.24 | 1.95 | 0.12 |  |  |  |  |  |  |  |
| COc1ccc(NNC(=O)c2ccccn2)cc1 [Compound 2f] |  |  |  |  |  |  |  | 0.98 (≈ 4.03 µM) | 0.98 (≈ 4.03 µM) | 0.98 (≈ 4.03 µM) | 0.98 (≈ 4.03 µM) | 0.49 (≈ 2.01 µM) | 1.95 (≈ 8.02 µM) | 0.12 (≈ 0.493 µM) |
| O=C(NNc1ccc(F)cc1F)c1ccccn1 [Compound 2g] |  |  |  |  |  |  |  | 0.49 (≈ 1.97 µM) | 31.3 (≈ 126 µM) | 0.49 (≈ 1.97 µM) | 1.95 (≈ 7.82 µM) | 0.98 (≈ 3.93 µM) | 0.98 (≈ 3.93 µM) | 0.12 (≈ 0.482 µM) |
| O=C(NNc1cc(F)ccc1F)c1ccccn1 [Compound 2h] |  |  |  |  |  |  |  | 0.98 (≈ 3.93 µM) | 1.95 (≈ 7.82 µM) | 1.95 (≈ 7.82 µM) | 1.95 (≈ 7.82 µM) | 0.98 (≈ 3.93 µM) | 3.9 (≈ 15.6 µM) | 0.12 (≈ 0.482 µM) |
| O=C(NNc1cc(F)cc(F)c1)c1ccccn1 [Compound 2i] |  |  |  |  |  |  |  | 0.49 (≈ 1.97 µM) | 0.98 (≈ 3.93 µM) | 1.95 (≈ 7.82 µM) | 0.98 (≈ 3.93 µM) | 0.98 (≈ 3.93 µM) | 0.98 (≈ 3.93 µM) | ≤ 0.06 |
| O=C(NNc1cc(Cl)cc(Cl)c1)c1ccccn1 [Compound 2j] |  |  |  |  |  |  |  | 1.95 (≈ 6.91 µM) | 1.95 (≈ 6.91 µM) | 3.9 (≈ 13.8 µM) | 1.95 (≈ 6.91 µM) | 0.98 (≈ 3.47 µM) | 1.95 (≈ 6.91 µM) | 0.24 (≈ 0.851 µM) |
| O=C(NNc1cccc(F)c1)c1ccc(F)cn1 [Compound 3a] | 1.95 μg/mL^−1 | 3.9 | 3.9 | 0.49 | 3.9 | 3.9 | 0.49 |  |  |  |  |  |  |  |
